A short description of data set [1]: MTT cytotoxicity, statements over all cell lines of the panel. The data set is classed as cell-based. To be noted: mouse (B16F10), human (MIA PaCa-2, PANC-1, HT-29, AsPC-1), B16F10, MIA PaCa-2, PANC-1, HT-29 and AsPC-1 cells, read-out: cellular viability. The source says:
(§1) B16F10 (KCLB80008), MIA PaCa-2 (KCLB21420), PANC-1 (KCLB21469), HT-29 (KCLB30038), AsPC-1 (KCLB21682), and Raw 264.7 (KCLB40071) cells were procured from the Korean Cell Line Bank (KCLB, Seoul, Republic of Korea). AsPC-1 and RAW264.7 were thawed and maintained in RPMI-1640 media (Life Technologies corporation, Carlsbad, CA, USA) supplemented with 10% fetal bovine serum (Life Technologies corporation, USA) and 1% penicillin and streptomycin (Life Technologies corporation, USA), while MIA PaCa-2, PANC-1, HT-29, and B16F10 cell lines were cultured in DMEM (Life technologies corporation, USA) containing 10% fetal bovine serum and 1% penicillin and streptomycin. All the cells were cultured at 37 °C in a 5% CO2 incubator.
(§2) After seeding B16F10 or MIA PaCa-2 at a density of 5 × 10^3 cells/well and PANC-1, HT-29, or AsPC-1 at a density of 1 × 10^4 cells/well in 96-well plates, the cells were incubated overnight at 37 °C in a CO2 incubator. […] After the incubation, the cells were either subjected to a 660 nm laser with a power density of 50 mW (0.5 J/cm^2) or not and were further incubated for 24 h at 37 °C. Moreover, the MTT assay was used to analyze the cell viability. The absorbance values of 540 nm were then measured using a microplate reader (Multiskan GO, Thermo Fisher Scientific, Oy, Ratastie 2, FI-01620 Vantaa, Finland).

The subject of data set [2] is B16F10, MIA PaCa-2, PANC-1, HT-29, AsPC-1. The data set is described as above. The data set is classed as cell-based.
Text: as §1, §2

The nature of data set [3]: MTT cytotoxicity (PDT and dark), MIA PaCa-2. It is filed as cell-based, Human. The note with it: human, MIA PaCa-2 cells, no illumination, MTT after 24 h.
Text: as §1
(§3) After seeding B16F10 or MIA PaCa-2 at a density of 5 × 10^3 cells/well and PANC-1, HT-29, or AsPC-1 at a density of 1 × 10^4 cells/well in 96-well plates, the cells were incubated overnight at 37 °C in a CO2 incubator. The cells were exposed to different doses of either chlorin e6 or rhodin g7 7^1-ethyl ester (0, 2.5, 5, 10, 20, 40, and 80 µM) for 3 h. After the incubation, the cells were either subjected to a 660 nm laser with a power density of 50 mW (0.5 J/cm^2) or not and were further incubated for 24 h at 37 °C. Moreover, the MTT assay was used to analyze the cell viability. The absorbance values of 540 nm were then measured using a microplate reader (Multiskan GO, Thermo Fisher Scientific, Oy, Ratastie 2, FI-01620 Vantaa, Finland).

Another data set deals with MIA PaCa-2. Description: MTT cytotoxicity (PDT and dark), MIA PaCa-2. The note with it: Homo sapiens, light or radiation study, 3 h exposure, 660 nm laser 0.5 J/cm^2, MTT after 24 h. The data set is classed as cell-based, Human.
Text: as §1, §3

A further data set has as its system HT29. Description: MTT cytotoxicity (PDT and dark), HT29. To be noted: Homo sapiens, HT-29, light or radiation study, 3 h exposure, 660 nm laser 0.5 J/cm^2, MTT after 24 h. The data set is classed as cell-based, Human.
Text: as §1, §3

Data set [4] can be described thus: MTT cytotoxicity (PDT and dark), HT29. The data set is classed as cell-based, Human. The note with it: human, HT-29 cells, no illumination, MTT after 24 h.
Text: as §1, §3

Another data set concerns AsPC-1. Kind of data set: MTT cytotoxicity (PDT and dark), AsPC-1. It is filed as cell-based, Human. The note with it: Homo sapiens, ASPC1, light or radiation study, 3 h exposure, 660 nm laser 0.5 J/cm^2, MTT after 24 h.
Text: as §1, §3

The nature of data set [5]: MTT cytotoxicity (PDT and dark), AsPC-1. The data set is classed as cell-based, Human. The note with it: human, AsPC-1 cells, no illumination, MTT after 24 h.
Text: as §1, §3

The next data set relates to MIA PaCa-2 cells. Description: Cellular uptake (plate reader and FOBI), MIA PaCa-2. The note with it: 3 h; for fluorescence intensity of treated cells compared to control (uptake): MIA PaCa-2, 100 μΜ. The data set is classed as cell-based, Human. The protocol:
(§4) A quantitly of 5 × 10^5 of MIA PaCa-2 and 2 × 10^5 of BV2 cells per well were seeded in a 6-well plate and were treated with or without chlorin e6 or rhodin g7 7^1-ethyl ester (10 and 100 μΜ). After 3 h, the cells were harvested and washed twice with 1 × phosphate buffered saline (DPBS) to remove the remaining chlorin e6 or rhodin g7 7^1-ethyl ester from the culture media and cell surfaces. The cells from each well were resuspended in 1 mL of 1 × DPBS and measured using FOBI and a plate reader. chlorin e6 or rhodin g7 7^1-ethyl ester-treated cells were divided into triplicate wells of a black-walled 96-well plate, each containing 100 µL. The measurement was taken immediately after aliquoting using a Spark Multimode Microplate Reader (Tecan Trading AG, Männedorf, Switzerland) for spectroscopy. The fluorescence was measured using excitation and emission peaks of 405 nm and 500–800 nm. For the FOBI analysis, 700 µL of chlorin e6 or rhodin g7 7^1-ethyl ester-treated cells was added to the e-tubes, and bioimaging was performed immediately using the fluorescence-labeled organism bioimaging instrument (FOBI) system (Cellgentek, Daejeon, Republic of Korea). Each image was exposed for 0.3 s, with a 405 nm wavelength LED, and an emmission light of 502 nm. The results were further quantitatively measured using the “NEOimage FOBI” software.

Another data set has as its system BV2 cells. Kind of data set: Cellular uptake (plate reader and FOBI), BV2. The data set is classed as cell-based. To be noted: 3 h; for fluorescence intensity of treated cells compared to control (uptake): BV2, 100 μΜ. The protocol:
as §4

The nature of data set [6]: MTT cytotoxicity (PDT and dark), PANC-1. The data set is classed as cell-based, Human. To be noted: human, PANC-1 cells, no illumination, MTT after 24 h.
Text: as §1, §3

In the next data set the test system is PANC-1. Kind of data set: MTT cytotoxicity (PDT and dark), PANC-1. It is filed as cell-based, Human. To be noted: Homo sapiens, light or radiation study, 3 h exposure, 660 nm laser 0.5 J/cm^2, MTT after 24 h.
Text: as §1, §3

In the next data set the test system is B16F10. Description: MTT cytotoxicity (PDT and dark), B16F10. The data set is classed as cell-based, Murine. To be noted: Mus musculus, B16-F10, light or radiation study, 3 h exposure, 660 nm laser 0.5 J/cm^2, MTT after 24 h.
Text: as §1, §3

Data set [7] in a line: MTT cytotoxicity (PDT and dark), B16F10. The data set is classed as cell-based, Murine. The note with it: mouse, B16F10 cells, no illumination, MTT after 24 h.
Text: as §1, §3

[8] abbreviates: complete absence of illumination, read-out: IC50 values dark toxicity, range over cell lines.
[9] abbreviates: light or radiation study, PDT, light dose 0.5 J/cm^2, five cancer cell lines, read-out: IC50 values post illumination, range over cancer cell lines.

pIC50: −log10 of the molar value. Read-outs that look alike come from different tables or passages of the source. Some results are limits rather than exact numbers.

As usually defined, the viability is a read-out of living cells in per cent, often relative to untreated cells. The pIC50 is the negative decadic logarithm of the IC50, by convention in mol/L.

On to `C=Cc1c(C)c2cc3nc(c(CC(=O)O)c4[nH]c(cc5nc(cc1[nH]2)C(C(=O)OCC)=C5CC)c(C)c4C(=O)O)[C@@H](CCC(=O)O)[C@@H]3C` [rhodin g7 7^1-ethyl ester], for which the viability is no less than 90% in [1] (rhodin g7 7^1-ethyl ester dark, concentrations as high as 37.4 µM) and less than 10% in data set [1] (rhodin g7 7^1-ethyl ester dark, doses as high as 660 µM, all cell lines). The pIC50 in data set [2] (setting [8]) is 3.41 to 3.79; in [2] (setting [9]) it was 4.31 to 5.08; in data set [3], 3.79; with MIA PaCa-2 it was 5.12; in the data set on HT29 it was 4.52; in [4], 3.65. Also, the pIC50 in the data set on AsPC-1 was 4.31; in data set [5] it was 3.40; in data set [6], 3.55; in the data set with PANC-1, 5.08; in the data set with B16F10, 4.91; in data set [7], 3.58. Also, the “higher cytotoxicity compared to chlorin e6” value in data set [2] (laser 0.5 J/cm^2, majority of the cancer cell lines) was determined as 2 fold. Also, the cellular viability in data set [2] (rhodin g7 7^1-ethyl ester PDT, concentrations higher than 53.7 µM, all cell lines) is listed as 10%. Besides, the “fluorescence intensity of treated cells compared to control (uptake)” value with MIA PaCa-2 cells and with BV2 cells was “significant increase in fluorescence intensity” throughout. Also, the “fluorescence intensity relative to chlorin e6 (uptake)” value in the data set on MIA PaCa-2 cells (MIA PaCa-2, FOBI system, 10 μΜ) was found to be 1.02 times; in the data set on MIA PaCa-2 cells (MIA PaCa-2, FOBI system, 100 μΜ), 1.3 times; in the data set on MIA PaCa-2 cells (MIA PaCa-2, plate reader, 10 μΜ), 3 times; in the data set with MIA PaCa-2 cells (MIA PaCa-2, plate reader, 100 μΜ), 1.4 times; with BV2 cells (BV2, FOBI system, 10 μΜ), 1.1 times; in the data set with BV2 cells (BV2, FOBI system, 100 μΜ), 1.4 times. Besides, the “fluorescence intensity relative to chlorin e6 (uptake)” value came to 2.2 times in the data set with BV2 cells (BV2, plate reader, 10 μΜ) and 2 times with BV2 cells (BV2, plate reader, 100 μΜ).

Regarding `C=Cc1c(C)c2cc3nc(c(CC(=O)O)c4[nH]c(cc5nc(cc1[nH]2)C(C)=C5CC)c(C)c4C(=O)O)[C@@H](CCC(=O)O)[C@@H]3C` [chlorin e6], the viability is no less than 90% in data set [1] (chlorin e6 dark, concentrations as high as 169.2 µM) and less than 10% in [1] (chlorin e6 dark, concentrations up to 729.4 µM, all cell lines). This molecule gave a cellular viability in data set [2] (chlorin e6-PDT, concentrations greater than 59.8 µM, all cell lines) of 10%. This molecule registered a viability at 7.8 µM in [2] (chlorin e6-PDT, dose of 7.8 µM, all cell lines, vs vehicle-treated control) of no less than 90%. In addition, the pIC50 in data set [2] (setting [8]) is 3.25 to 3.60; in data set [2] (setting [9]) it was 4.47 to 4.75; in data set [3] it was 3.37; with MIA PaCa-2, 4.63; in the data set with HT29, 4.55; in data set [4] it was 3.27. Further, the pIC50 in the data set with AsPC-1 is 4.52; in [5], 3.61; in data set [6] it was 3.52; in the data set on PANC-1, 4.75; in the data set with B16F10, 4.47; in data set [7] it was 3.26. In addition, the “fluorescence intensity of treated cells compared to control (uptake)” value in the data set on MIA PaCa-2 cells and in the data set on BV2 cells was “significant increase in fluorescence intensity” in each case.

Values taken from publication PMC11240924, “Isolation, Identification, and Biological Activities of a New Chlorin e6 Derivative” (International Journal of Molecular Sciences, 2024).
